Biological target: T1, Human pyruvate kinase R (PKR) (Homo sapiens, UniProt P30613)
T1 construct: Human pyruvate kinase R (PKR), residues 14-574; 6x-His (N, cleaved yes); 8x-Arg (N, cleaved yes); SUMO (N, cleaved yes); host or cells: E. coli
Experiment: Biochemical assay for activation of pyruvate kinase R (Kinase-Glo luminescence measurement of ATP generation)
Conditions: for AC50: PKR biochemical assay, 0.1 nM PKR, 0.3 mM ADP, 2 mM FBP, 0.1 mM PEP; for Emax: maximal activation level relative to the activation level achieved by the literature compound AG-348 @ 10 μM
Summary of the method: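 Recombinant human PKR (residues 14-574), E. coli-expressed with His-Arg-SUMO tag removed, purified by Ni-NTA, anion exchange and size exclusion. Activation measured as ATP generation via Kinase-Glo luminescence.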

T1 sequence (P30613 14-574): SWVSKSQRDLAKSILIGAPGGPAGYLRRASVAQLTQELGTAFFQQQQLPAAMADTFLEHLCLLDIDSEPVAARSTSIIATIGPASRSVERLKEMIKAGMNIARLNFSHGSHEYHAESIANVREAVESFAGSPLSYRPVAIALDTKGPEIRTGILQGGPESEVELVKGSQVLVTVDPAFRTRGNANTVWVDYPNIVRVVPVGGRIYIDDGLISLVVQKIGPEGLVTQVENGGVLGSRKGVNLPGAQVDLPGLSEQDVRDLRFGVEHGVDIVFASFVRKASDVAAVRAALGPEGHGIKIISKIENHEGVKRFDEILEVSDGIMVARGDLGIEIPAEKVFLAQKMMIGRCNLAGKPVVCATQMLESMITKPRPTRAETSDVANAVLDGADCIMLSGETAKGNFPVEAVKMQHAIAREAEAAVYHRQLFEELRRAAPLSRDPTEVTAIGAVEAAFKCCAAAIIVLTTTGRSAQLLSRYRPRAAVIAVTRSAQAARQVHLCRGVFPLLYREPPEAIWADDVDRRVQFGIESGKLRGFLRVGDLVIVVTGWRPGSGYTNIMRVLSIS

SMILES	AC50 [nM]	Emax [%]
Cc1nc(CNC(=O)NCc2nc(C)nn2-c2ccc3cccnc3c2)n(-c2ccc3cccnc3c2)n1 [Compound 84, 1,3-bis({[3-methyl-1-(quinolin-7-yl)-1H-1,2,4-triazol-5-yl]methyl})urea]	520	94
O=C(NCc1nnnn1-c1ccc(Cl)cc1)NCc1nnnn1-c1ccc(Cl)cc1 [Compound 1, 1,3-bis({[1-(4-chlorophenyl)-1H-1,2,3,4-tetrazol-5-yl]methyl})urea]	189	96
Cc1nc(CNC(=O)NCc2ncnn2-c2cnc3cccc(F)c3c2)n(-c2ccc(Cl)c(F)c2)n1 [Compound 140, 1-{[1-(4-chloro-3-fluorophenyl)-3-methyl-1H-1,2,4-triazol-5-yl]methyl}-3-{[1-(5-fluoroquinolin-3-yl)-1H-1,2,4-triazol-5-yl]methyl}urea]	25	72
Cc1nc(CNC(=O)NCc2ncnn2-c2ccc(Cl)c(F)c2)n(-c2cnc3ccccc3c2)n1 [Compound 144, 1-{[1-(4-chloro-3-fluorophenyl)-1H-1,2,4-triazol-5-yl]methyl}-3-{[3-methyl-1-(quinolin-3-yl)-1H-1,2,4-triazol-5-yl]methyl}urea]	27	94
O=C(NCc1nnnn1-c1ccc(Cl)cc1F)NCc1nnnn1-c1ccc(Cl)cc1F [Compound 25, 1,3-bis({[1-(4-chloro-2-fluorophenyl)-1H-1,2,3,4-tetrazol-5-yl]methyl})urea]	2500	80
Cc1nc(CNC(=O)NCc2ncnn2-c2ccc3cnccc3c2)n(-c2ccc(Cl)c(F)c2)n1 [Compound 82, 1-{[1-(4-chloro-3-fluorophenyl)-3-methyl-1H-1,2,4-triazol-5-yl]methyl}-3-{[1-(isoquinolin-6-yl)-1H-1,2,4-triazol-5-yl]methyl}urea]	270	85
CCc1nc(CNC(=O)NCc2ncnn2-c2ccc3nccnc3c2)n(-c2ccc(Cl)c(F)c2)n1 [Compound 49, 1-{[1-(4-chloro-3-fluorophenyl)-3-ethyl-1H-1,2,4-triazol-5-yl]methyl}-3-{[1-(quinoxalin-6-yl)-1H-1,2,4-triazol-5-yl]methyl}urea]	150	79
O=C(NCc1ncnn1-c1ccc(Cl)c(F)c1)N(CCF)Cc1ncnn1-c1ccc(Cl)c(F)c1 [Compound 38, 1,3-bis({[1-(4-chloro-3-fluorophenyl)-1H-1,2,4-triazol-5-yl]methyl})-1-(2-fluoroethyl)urea]	55	53
O=C(NCc1ncnn1-c1ccc2cccnc2c1)NCc1ncnn1-c1ccc2cccnc2c1 [Compound 81, 1,3-bis({[1-(quinolin-7-yl)-1H-1,2,4-triazol-5-yl]methyl})urea]	280	64
Cc1nc(CNC(=O)NCc2ncnn2-c2ccn3ccnc3c2)n(-c2ccc(Cl)c(F)c2)n1 [Compound 128, 1-{[1-(4-chloro-3-fluorophenyl)-3-methyl-1H-1,2,4-triazol-5-yl]methyl}-3-[(1-{imidazo[1,2-a]pyridin-7-yl}-1H-1,2,4-triazol-5-yl)methyl]urea]	24	59
CC(C)c1nc(CNC(=O)NCc2ncnn2-c2ccc3cccnc3c2)n(-c2ccc(Cl)c(F)c2)n1 [Compound 42, 1-{[1-(4-chloro-3-fluorophenyl)-3-(propan-2-yl)-1H-1,2,4-triazol-5-yl]methyl}-3-{[1-(quinolin-7-yl)-1H-1,2,4-triazol-5-yl]methyl}urea]	540	74
O=C(NCc1ncnn1-c1ccc2ncccc2c1)NCc1ncnn1-c1ccc2ncccc2c1 [Compound 71, 1,3-bis({[1-(quinolin-6-yl)-1H-1,2,4-triazol-5-yl]methyl})urea]	930	48
Cc1nc(CNC(=O)N(C)Cc2ncnn2-c2ccc3scnc3c2)n(-c2ccc(Cl)c(F)c2)n1 [Compound 22, 1-{[1-(1,3-benzothiazol-5-yl)-1H-1,2,4-triazol-5-yl]methyl}-3-{[1-(4-chloro-3-fluorophenyl)-3-methyl-1H-1,2,4-triazol-5-yl]methyl}-1-methylurea]	33	83
COc1ccc(-n2ncnc2CNC(=O)NCc2ncnn2-c2ccc(Cl)c(F)c2)cn1 [Compound 118, 3-{[1-(4-chloro-3-fluorophenyl)-1H-1,2,4-triazol-5-yl]methyl}-1-{[1-(6-methoxypyridin-3-yl)-1H-1,2,4-triazol-5-yl]methyl}urea]	47	36
O=C(NCc1ncnn1-c1ccc(Cl)c(F)c1)NCc1ncnn1-c1cnc2cc(F)ccc2c1 [Compound 145, 1-{[1-(4-chloro-3-fluorophenyl)-1H-1,2,4-triazol-5-yl]methyl}-3-{[1-(7-fluoroquinolin-3-yl)-1H-1,2,4-triazol-5-yl]methyl}urea]	51	76
CCc1ccc(-n2ncnc2CNC(=O)NCc2nc(C)nn2-c2ccc(Cl)c(F)c2)cn1 [Compound 141, 1-{[1-(4-chloro-3-fluorophenyl)-3-methyl-1H-1,2,4-triazol-5-yl]methyl}-3-{[1-(6-ethylpyridin-3-yl)-1H-1,2,4-triazol-5-yl]methyl}urea]	140	71
Cc1nc(CNC(=O)NCc2ncnn2-c2cc(F)c3cccnc3c2)n(-c2ccc(Cl)c(F)c2)n1 [Compound 47, 1-{[1-(4-chloro-3-fluorophenyl)-3-methyl-1H-1,2,4-triazol-5-yl]methyl}-3-{[1-(5-fluoroquinolin-7-yl)-1H-1,2,4-triazol-5-yl]methyl}urea]	42	85
O=C(NCC1=NC2(CC2)C(=O)N1Cc1ccc(F)cc1)NCc1ncnn1-c1ccc2cccnc2c1 [Compound 110, 3-({6-[(4-fluorophenyl)methyl]-7-oxo-4,6-diazaspiro[2.4]hept-4-en-5-yl}methyl)-1-{[1-(quinolin-7-yl)-1H-1,2,4-triazol-5-yl]methyl}urea]	61	83
CCN(Cc1ncnn1-c1ccc(OC)nc1)C(=O)NCc1nc(C)nn1-c1ccc(Cl)c(F)c1 [Compound 124, 3-{[1-(4-chloro-3-fluorophenyl)-3-methyl-1H-1,2,4-triazol-5-yl]methyl}-1-ethyl-1-{[1-(6-methoxypyridin-3-yl)-1H-1,2,4-triazol-5-yl]methyl}urea]	270	79
Cc1nc(CNC(=O)NCc2nc(CCO)nn2-c2ccc(Cl)c(F)c2)n(-c2ccc3cccnc3c2)n1 [Compound 94, 1-{[1-(4-chloro-3-fluorophenyl)-3-(2-hydroxyethyl)-1H-1,2,4-triazol-5-yl]methyl}-3-{[3-methyl-1-(quinolin-7-yl)-1H-1,2,4-triazol-5-yl]methyl}urea]	730	87
CCN(Cc1ncnn1-c1ccc(OC)nc1)C(=O)NCc1ncnn1-c1ccc(Cl)c(F)c1 [Compound 122, 3-{[1-(4-chloro-3-fluorophenyl)-1H-1,2,4-triazol-5-yl]methyl}-1-ethyl-1-{[1-(6-methoxypyridin-3-yl)-1H-1,2,4-triazol-5-yl]methyl}urea]	190	42
O=C(NCc1ncnn1-c1ccc(Cl)c(F)c1)NCc1nnnn1-c1ccc(Cl)c(F)c1 [Compound 31, 3-{[1-(4-chloro-3-fluorophenyl)-1H-1,2,3,4-tetrazol-5-yl]methyl}-1-{[1-(4-chloro-3-fluorophenyl)-1H-1,2,4-triazol-5-yl]methyl}urea]	14	76
CN(Cc1ncnn1-c1ccc(Cl)c(F)c1)C(=O)NCc1ncnn1-c1ccc(Cl)c(F)c1 [Compound 27, 1,3-bis({[1-(4-chloro-3-fluorophenyl)-1H-1,2,4-triazol-5-yl]methyl})-1-methylurea]	5.4	33
Cc1nc(CNC(=O)NCc2ncnn2CC2CCOC(C)(C)C2)n(-c2ccc(Cl)c(F)c2)n1 (stereo not shown) [Compound 14, 3-{[1-(4-chloro-3-fluorophenyl)-3-methyl-1H-1,2,4-triazol-5-yl]methyl}-1-({1-[(2,2-dimethyloxan-4-yl)methyl]-1H-1,2,4-triazol-5-yl}methyl)urea]	1400	84
Cc1nc(CNC(=O)NCc2ncnn2-c2ccc3cncnc3c2)n(-c2ccc(Cl)c(F)c2)n1 [Compound 88, 1-{[1-(4-chloro-3-fluorophenyl)-3-methyl-1H-1,2,4-triazol-5-yl]methyl}-3-{[1-(quinazolin-7-yl)-1H-1,2,4-triazol-5-yl]methyl}urea]	70	68
CNCc1cc(-n2nc(C)nc2CNC(=O)NCc2nc(C)nn2-c2ccc(Cl)c(F)c2)ccc1Cl [Compound 99, 1-[(1-{4-chloro-3-[(methylamino)methyl]phenyl}-3-methyl-1H-1,2,4-triazol-5-yl)methyl]-3-{[1-(4-chloro-3-fluorophenyl)-3-methyl-1H-1,2,4-triazol-5-yl]methyl}urea]	69	69
CCN(Cc1ncnn1-c1ccc(Cl)c(F)c1)C(=O)NCc1ncnn1-c1ccc(OC)nc1 [Compound 120, 3-{[1-(4-chloro-3-fluorophenyl)-1H-1,2,4-triazol-5-yl]methyl}-3-ethyl-1-{[1-(6-methoxypyridin-3-yl)-1H-1,2,4-triazol-5-yl]methyl}urea]	220	51
Cc1nc(CNC(=O)NCc2ncnn2CC2CCCCC2)n(-c2ccc(Cl)c(F)c2)n1 [Compound 16, 3-{[1-(4-chloro-3-fluorophenyl)-3-methyl-1H-1,2,4-triazol-5-yl]methyl}-1-{[1-(cyclohexylmethyl)-1H-1,2,4-triazol-5-yl]methyl}urea]	55	93
CN(Cc1ncnn1-c1ccc(Cl)c(F)c1)C(=O)N(C)Cc1ncnn1-c1ccc(Cl)c(F)c1 [Compound 28, 1,3-bis({[1-(4-chloro-3-fluorophenyl)-1H-1,2,4-triazol-5-yl]methyl})-1,3-dimethylurea]	1200	29
